These results are taken from patent US8741923B2, “Oxadiazole fused heterocyclic derivatives useful for the treatment of multiple sclerosis” (Merck Serono SA, priority 2008, dated 2014).

Test [1] addresses T1, S1P1 (Homo sapiens (Human), UniProt P21453). Description: Receptor binding assay ([33P]sphingosine 1-phosphate, SPA) on S1P1 membranes. The following applies: membranes from CHO cells expressing S1P1. The method, then:
(§1) Receptor binding assay: Membranes were prepared from CHO cells expressing S1P1 or S1P3 for use in ligand and 35S-GTPγS binding studies. Cells were suspended in 50 mM TRIS, pH 7.4, 2 mM EDTA, 250 mM Sucrose (buffer A) and 1× Complete protease inhibitor cocktail (Roche), and disrupted at 4° C. by N2 decompression using a cell disruption bomb (Parr Instrument). Following centrifugation at 1000 RPM for 10 min at 4° C., the supernatant was suspended in buffer A and centrifuged again at 19000 RPM for 60 min at 4° C. The pellet was then suspended in 10 mM HEPES, pH 7.4, 1 mM EDTA, 250 mM Sucrose (Buffer B), and 1× Complete EDTA-free protease inhibitor cocktail and homogenized using a potter. Membranes were flash frozen in liquid N2 and stored at −80° C. [33P]sphingosine 1-phosphate (3000 Ci/mmol; American Radiolabeled Chemicals, Inc.) was added to test compounds in DMSO. Membranes and WGA SPA beads (GE Healthcare) were added to give a final volume of 100 μl in 96-well plates with assay concentrations of 25 μM or 10 μM [33P]sphingosine 1-phosphate (respectively for S1P1 or S1P3), 50 mM HEPES, pH 7.5, 5 mM MgCl2, 100 mM NaCl, 0.4% fatty acid-free BSA, 1-5 μg/well of proteins and 100 μg/well of WGA SPA beads. Binding was performed for 60 min at RT on a shaker and bound radioactivity was measured on a PerkinElmer 1450 MicroBeta counter. Specific binding was calculated by subtracting remaining radioactivity in the presence of 1000-fold excess of unlabeled S1P. Binding data were analyzed using the GraphPad Prism program.

Test [2] deals with T1, S1P1. Put plainly: 35S-GTPγS binding, S1P1 membranes. The following applies: membranes from CHO cells expressing S1P1. Type of test: biochemical. How it is done:
as §1, with “Membranes and WGA SPA beads (GE Healthcare) were added to give a final volume of 100 μl in 96-well plates with assay concentrations of 25 μM or 10 μM [33P]sphingosine 1-phosphate (respectively for S1P1 or S1P3), 50 mM HEPES, pH 7.5, 5 mM MgCl2, 100 mM NaCl, 0.4% fatty acid-free BSA, 1-5 μg/well of proteins and 100 μg/well of WGA SPA beads. Binding was performed for 60 min at RT on a shaker and bound radioactivity was measured on a PerkinElmer 1450 MicroBeta counter.” left out
(§2) Measurements of 35S-GTPγS Binding:
After 60 min incubation at 30° C. on a shaker, plates were centrifuged for 10 min at 2000 RPM. […] Triplicate samples were averaged and expressed as % response relative to S1P activation in absence of compound (n=2).
(In general: GTPγS is a poorly hydrolysed GTP analogue; its binding reports G protein activation.)

The target in test [3] is S1P3 (Homo sapiens (Human), UniProt Q99500). Put plainly: 35S-GTPγS binding, S1P3 membranes. Type of test: biochemical. Conditions: membranes from CHO cells expressing S1P3. The method, then:
as §1, §2
Membranes (1 to 10 μg protein) prepared as described above, were incubated in 96-well Scintiplates (PerkinElmer) with test compounds diluted in DMSO, in 180 μl of 20 mM HEPES, pH 7.4, 10 mM MgCl2, 2 μg/well Saponin, 0.2% fatty acid free BSA (Assay buffer), 140 mM NaCl and 1.7 μM GDP. The assay was initiated with the addition of 20 μl of 1.5 nM [35S]-GTPγS (1100 Ci/mmol; GE Healthcare) in assay buffer. After 60 min incubation at 30° C. on a shaker, plates were centrifuged for 10 min at 2000 RPM. Supernatant was discarded and membrane bound radioactivity was measured on a PerkinElmer 1450 MicroBeta counter. Triplicate samples were averaged and expressed as % response relative to S1P activation in absence of compound (n=2).

SMILES strings stand for the structures.

As a reminder, the Ki is a measure of affinity in units of concentration, obtained from inhibition or displacement. Lower therefore signals tighter binding. For orientation: EC50 means the midpoint of the concentration-response curve. Higher therefore signals a need for much substance.

T1 sequence (P21453 whole entry, species assumed): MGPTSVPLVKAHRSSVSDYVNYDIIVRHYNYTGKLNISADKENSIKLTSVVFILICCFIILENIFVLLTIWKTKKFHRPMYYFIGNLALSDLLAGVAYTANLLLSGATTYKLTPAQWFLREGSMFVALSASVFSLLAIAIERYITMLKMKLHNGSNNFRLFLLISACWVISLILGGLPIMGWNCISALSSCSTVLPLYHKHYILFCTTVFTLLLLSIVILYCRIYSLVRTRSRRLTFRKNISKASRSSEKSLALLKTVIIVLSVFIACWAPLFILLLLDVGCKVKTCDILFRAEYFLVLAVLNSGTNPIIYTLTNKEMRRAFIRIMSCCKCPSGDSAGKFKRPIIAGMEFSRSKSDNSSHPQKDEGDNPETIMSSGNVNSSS
Chain of S1P3 (Q99500 whole entry, species assumed): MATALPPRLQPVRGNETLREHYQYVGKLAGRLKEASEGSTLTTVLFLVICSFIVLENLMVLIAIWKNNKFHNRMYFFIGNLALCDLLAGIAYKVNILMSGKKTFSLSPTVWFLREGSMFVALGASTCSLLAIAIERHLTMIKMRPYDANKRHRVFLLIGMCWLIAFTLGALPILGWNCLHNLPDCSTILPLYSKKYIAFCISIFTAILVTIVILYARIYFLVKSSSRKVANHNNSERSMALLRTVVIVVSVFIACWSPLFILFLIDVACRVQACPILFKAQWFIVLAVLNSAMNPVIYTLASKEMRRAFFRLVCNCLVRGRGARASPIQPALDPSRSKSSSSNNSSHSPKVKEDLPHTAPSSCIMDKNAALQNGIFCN

On to `CC1CCCCN1c1ccc(-c2nc(-c3ccc4c(c3)CNCC4)no2)cc1C#N` (stereo not drawn) [Compound 12, 2-(2-methylpiperidin-1-yl)-5-[3-(1,2,3,4-tetrahydroisoquinolin-7-yl)-1,2,4-oxadiazol-5-yl]benzonitrile], for which the Ki in test [1] amounted to 0.8 nM. The midpoint of the response in test [2], the EC50, lay at 9 nM.
As for `COCc1cc(-c2nc(-c3ccc4[nH]cnc4c3)no2)ccc1-c1ccccc1C` [Compound 4, 5-{5-[2-(methoxymethyl)-2′-methylbiphenyl-4-yl]-1,2,4-oxadiazol-3-yl}-1H-benzimidazole], the Ki in test [1] worked out at 5 nM. The half-maximal effective concentration (EC50) was determined as 8.4 nM in test [2] and 325 nM in test [3].
With `Cc1ccccc1-c1ccc(-c2nc(-c3ccc4nc[nH]c4c3)no2)cc1CN(C)C` [Compound 5, 1-{4-[3-(1H-benzimidazol-6-yl)-1,2,4-oxadiazol-5-yl]-2′-methylbiphenyl-2-yl}-N,N-dimethylmethanamine], in test [1], affinity was put at a Ki of 5 nM. Also, the EC50 in test [2] came out at 3.4 nM.
The molecule `CC1CCCCN1c1ccc(-c2nc(-c3ccc4[nH]cnc4c3)no2)cc1C(F)(F)F` (stereo not drawn) [Compound 1, 5-{5-[4-(2-methylpiperidin-1-yl)-3-(trifluoromethyl)phenyl]-1,2,4-oxadiazol-3-yl}-1H-benzimidazole] yielded an inhibitory constant (Ki) in test [1] of 5 nM. Moreover, the concentration for a half-maximal effect (EC50) came out at 11 nM in test [2] and 621 nM in test [3].
`COCc1cc(-c2nc(-c3ccc4c(c3)CNCC4)no2)ccc1-c1ccccc1C` [Compound 15, 7-{5-[2-(methoxymethyl)-2′-methylbiphenyl-4-yl]-1,2,4-oxadiazol-3-yl}-1,2,3,4-tetrahydroisoquinoline]: the Ki in test [1] was 1 nM. It took 6 nM to reach a half-maximal effect in test [2] (EC50).
The like results for `Cc1cc(-c2nc(-c3ccc4[nH]cnc4c3)no2)cnc1N1CCCCC1C` (stereo not drawn) [Compound 3, 5-{5-[5-methyl-6-(2-methylpiperidin-1-yl)pyridin-3-yl]-1,2,4-oxadiazol-3-yl}-1H-benzimidazole] were, in that order, 38 nM and 94 nM.
`CCC1CCCCN1c1ccc(-c2nc(-c3ccc4[nH]cnc4c3)no2)cc1COC` (stereo not drawn) [Compound 27, 5-{5-[4-(2-ethylpiperidin-1-yl)-3-(methoxymethyl)phenyl]-1,2,4-oxadiazol-3-yl}-1H-benzimidazole] gave a Ki in test [1] of 4.26 nM. This molecule displayed an EC50 in test [2] of 17 nM.
`CC1CCCCN1c1ccc(-c2nc(-c3ccc4[nH]ccc4c3)no2)cc1NS(C)(=O)=O` (stereo not drawn) [Compound 22, N-[5-[3-(1H-indol-5-yl)-1,2,4-oxadiazol-5-yl]-2-(2-methylpiperidin-1-yl)phenyl]methanesulfonamide]: the Ki in test [1] amounted to 164 nM. Moreover, the EC50 in test [2] came to 16 nM.
`Cc1ccccc1-c1ccc(-c2nc(-c3ccc4[nH]ncc4c3)no2)cc1C` [Compound 25, 5-[5-(2,2′-dimethylbiphenyl-4-yl)-1,2,4-oxadiazol-3-yl]-1H-indazole] displayed an inhibition constant Ki in test [1] of 11 nM. The molecule further returned an EC50 in test [2] of 32 nM.
For the molecule `CC1CCCCN1c1ccc(-c2nc(-c3ccc4c(c3)CNCC4)no2)cc1C(F)(F)F` (stereo not drawn) [Compound 10, 7-{5-[4-(2-methylpiperidin-1-yl)-3-(trifluoromethyl)phenyl]-1,2,4-oxadiazol-3-yl}-1,2,3,4-tetrahydroisoquinoline], the Ki in test [1] was 3 nM. The EC50 in test [2] was 12 nM; in test [3], 584 nM.
The molecule `COCc1cc(-c2nc(-c3ccc4c(c3)CN(CC(=O)O)CC4)no2)ccc1-c1ccccc1C` [Compound 16, [7-{5-[2-(methoxymethyl)-2′-methylbiphenyl-4-yl]-1,2,4-oxadiazol-3-yl}-3,4-dihydroisoquinolin-2(1H)-yl]acetic acid] gave a Ki in test [1] of 0.7 nM. This molecule registered a half-maximal effective concentration (EC50) in test [2] of 2.1 nM.
For `COc1cc(-c2nc(-c3ccc4[nH]ncc4c3)no2)ccc1-c1cscc1C` [Compound 24, 5-{5-[3-methoxy-4-(4-methyl-3-thienyl)phenyl]-1,2,4-oxadiazol-3-yl}-1H-indazole], the affinity in test [1], expressed as Ki, was 3 nM. In test [2], this molecule returned an EC50 of 4 nM.
For the molecule `CC1CCCCN1c1ccc(-c2nc(-c3ccc4c(c3)CNCC4)no2)cc1NS(C)(=O)=O` (stereo not drawn) [Compound 11, N-{2-(2-methylpiperidin-1-yl)-5-[3-(1,2,3,4-tetrahydroisoquinolin-7-yl)-1,2,4-oxadiazol-5-yl]phenyl}methanesulfonamide], in test [1], the affinity corresponds to a Ki of 4 nM. Also, the EC50 came out at 6 nM in test [2] and 159 nM in test [3].
